Measurements reported in paper PMC6482847 (Molecular microbiology, 2019).

Target: T1, FtsZAT (Agrobacterium fabrum, UniProt A9CIB1)
T1 sequence (A9CIB1 1-583): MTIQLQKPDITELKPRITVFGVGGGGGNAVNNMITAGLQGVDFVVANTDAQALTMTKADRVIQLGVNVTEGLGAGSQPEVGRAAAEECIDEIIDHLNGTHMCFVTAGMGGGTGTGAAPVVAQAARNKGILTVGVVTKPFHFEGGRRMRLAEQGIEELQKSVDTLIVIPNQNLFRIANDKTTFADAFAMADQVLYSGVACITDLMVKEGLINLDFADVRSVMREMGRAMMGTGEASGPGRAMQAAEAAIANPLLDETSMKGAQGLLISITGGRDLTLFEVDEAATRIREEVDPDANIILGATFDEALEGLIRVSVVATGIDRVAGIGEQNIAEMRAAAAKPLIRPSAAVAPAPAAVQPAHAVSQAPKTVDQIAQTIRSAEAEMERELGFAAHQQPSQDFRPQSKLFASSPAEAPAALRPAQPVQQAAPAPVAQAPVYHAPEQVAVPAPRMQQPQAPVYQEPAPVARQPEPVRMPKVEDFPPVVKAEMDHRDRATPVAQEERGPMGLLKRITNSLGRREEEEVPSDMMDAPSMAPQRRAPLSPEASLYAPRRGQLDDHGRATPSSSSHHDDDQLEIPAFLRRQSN
Test: GTPase assay, inorganic phosphate release
Type: biochemical
Conditions: 2 mM GTP, 8 µM FtsZAT, 2.5 mM MgCl2, 50 mM HEPES-KOH pH 7.2, 50 mM KCl, 0.1 mM EDTA

`Nc1nc2c(ncn2[C@@H]2O[C@H](COP(=O)(O)OP(=O)(O)OP(=O)(O)O)[C@@H](O)[C@H]2O)c(=O)[nH]1` [GTP] was tested, and the “GTPase assay, inorganic phosphate release (colorimetric)” value was “it rapidly releases inorganic phosphate suggesting that GTP is hydrolyzed”.
